In brackets after ≈: the same amount, converted by molar mass.
Key:
Assay in all cases: ≥ marks a high value that may be exact or a test limit, other limits are often not marked, values filed in µg/mL are converted to µM
[1] = test system: Bacillus subtilis KCTC 3068
Enterococcus faecalis VR = test system: Enterococcus faecalis VR
[2] = test system: Staphylococcus aureus KCTC 1621
Staphylococcus aureus MR = test system: Staphylococcus aureus MR
Enterococcus faecalis = test system: Enterococcus faecalis
Enterococcus faecium = test system: Enterococcus faecium
[3] = test system: Staphylococcus epidermidis KCTC 1917
[4] = test system: Salmonella typhimurium KCTC 1926
[5] = test system: Escherichia coli KCTC 1682
[6] = test system: Pseudomonas aeruginosa KCTC 1637
Enterococcus faecium VR = test system: Enterococcus faecium VR
[7] = test system: Bacillus subtilis ATCC 6051
[8] = test system: Pseudomonas aeruginosa PAO1
[9] = test system: Acinetobacter baumannii ATCC 19606
[10] = test system: Staphylococcus aureus ATCC 27660
Escherichia coli D31 = test system: Escherichia coli D31
[11] = test system: Escherichia coli ATCC 25922
[12] = test system: Staphylococcus epidermidis ATCC 12228
[13] = test system: Candida albicans ATCC 24433
[14] = test system: Staphylococcus aureus NCTC 10788
[15] = test system: Candida albicans NCYC 1467
[16] = test system: Escherichia coli NCTC 10418
[17] = test system: Klebsiella pneumoniae ATCC 43816
[18] = test system: Staphylococcus aureus NCTC 12493
[19] = test system: Enterococcus faecalis NCTC 12697
Streptococcus pneumoniae = test system: Streptococcus pneumoniae
[20] = test system: Staphylococcus aureus ATCC 25923
Enterobacter cloacae = test system: Enterobacter cloacae
Staphylococcus aureus = test system: Staphylococcus aureus
[21] = test system: Pseudomonas aeruginosa ATCC 15442
Klebsiella pneumoniae = test system: Klebsiella pneumoniae
[22] = test system: Acinetobacter baumannii ATCC 15308
Citrobacter sp. = test system: Citrobacter sp.

SMILES	MIC [1]	MIC (Enterococcus faecalis VR)	MIC [2]	MIC (Staphylococcus aureus MR)	MIC (Enterococcus faecalis)	MIC (Enterococcus faecium)	MIC [3]	MIC [4]	MIC [5]	MIC [6]	MIC (Enterococcus faecium VR)	MIC [11]	MIC (Streptococcus pneumoniae)	MIC [20]	MIC (Enterobacter cloacae)	MIC (Staphylococcus aureus)	MIC [21]	MIC (Klebsiella pneumoniae)	MIC [22]	MIC (Citrobacter sp.)	further results
CC[C@H](C)[C@H](NC(=O)[C@H](CS)NC(=O)[C@H](Cc1cnc[nH]1)NC(=O)[C@H](C)NC(=O)[C@H](C)N)C(=O)N[C@@H](CCC(N)=O)C(=O)N[C@@H](CC(C)C)C(=O)NCC(=O)N[C@@H](CCCCN)C(=O)N[C@@H](CCCN=C(N)N)C(N)=O [AAHCIQLGKR]	30 µM (≈ 32.9 µg/mL)	30 µM (≈ 32.9 µg/mL)	30 µM (≈ 32.9 µg/mL)	30 µM (≈ 32.9 µg/mL)	30 µM (≈ 32.9 µg/mL)	30 µM (≈ 32.9 µg/mL)	30 µM (≈ 32.9 µg/mL)	30 µM (≈ 32.9 µg/mL)	30 µM (≈ 32.9 µg/mL)	30 µM (≈ 32.9 µg/mL)	30 µM (≈ 32.9 µg/mL)	–	–	–	–	–	–	–	–	–	–
CC(C)C[C@H](NC(=O)[C@H](C)N)C(=O)N[C@@H](Cc1c[nH]c2ccccc12)C(=O)N[C@@H](CCCN=C(N)N)C(=O)N[C@@H](CCCN=C(N)N)C(=O)N[C@@H](CC(C)C)C(=O)N[C@@H](CC(C)C)C(=O)N[C@@H](CCCN=C(N)N)C(=O)N[C@@H](CCCN=C(N)N)C(=O)N[C@@H](CC(C)C)C(=O)N[C@@H](CC(C)C)C(=O)N[C@@H](CCCN=C(N)N)C(=O)N[C@@H](CO)C(=O)N[C@@H](C)C(=O)N[C@@H](CCCN=C(N)N)C(=O)N[C@@H](CCCN=C(N)N)C(=O)N[C@@H](CC(C)C)C(=O)NCC(N)=O [ALWRRLLRRLLRSARRLG]	–	–	–	–	–	–	–	–	–	–	–	–	–	–	–	–	–	–	–	–	MIC [7]: 1.88 µM (≈ 4.24 µg/mL); MIC [8]: 7.5 µM (≈ 17 µg/mL); MIC [9]: 3.75 µM (≈ 8.48 µg/mL); MIC [10]: 3.75 µM (≈ 8.48 µg/mL); MIC (Escherichia coli D31): 1.88 µM (≈ 4.24 µg/mL)
CC[C@H](C)[C@H](NC(=O)CNC(=O)[C@@H](NC(=O)[C@H](C)NC(=O)[C@@H](NC(=O)[C@H](CCCCN)NC(=O)[C@@H]1CCCN1C(=O)[C@@H](NC(=O)[C@H](CCSC)NC(=O)[C@H](CO)NC(=O)[C@H](Cc1ccccc1)NC(=O)[C@@H](N)Cc1ccccc1)[C@@H](C)CC)[C@@H](C)CC)[C@@H](C)O)C(=O)N[C@@H](C)C(=O)N[C@@H](CO)C(=O)N[C@@H](CC(C)C)C(=O)N[C@H](C(=O)N[C@@H](CCCCN)C(=O)N[C@@H](CC(=O)O)C(=O)N[C@@H](CC(C)C)C(N)=O)C(C)C [FFSMIPKIATGIASLVKDL]	–	–	–	–	–	–	–	–	–	–	–	> 100 µM	–	–	–	–	–	–	–	–	MIC [12]: > 100 µM; MIC [13]: ≥ 100 µM
CC[C@H](C)[C@H](NC(=O)[C@H](C)NC(=O)[C@H](C)NC(=O)[C@@H]1CCCN1C(=O)[C@@H](NC(=O)[C@H](CC(C)C)NC(=O)[C@H](CCCCN)NC(=O)CNC(=O)[C@H](C)NC(=O)[C@@H](NC(=O)[C@H](CCCCN)NC(=O)[C@H](CC(C)C)NC(=O)[C@@H](NC(=O)[C@H](C)NC(=O)CNC(=O)[C@H](CC(C)C)NC(=O)[C@@H](N)Cc1ccccc1)C(C)C)C(C)C)C(C)C)C(=O)O [FLGAVLKVAGKLVPAAI]	–	–	–	–	–	–	–	–	–	–	–	–	–	–	–	–	–	–	–	–	MIC [14]: ≥ 512 µM; MIC [15]: ≥ 512 µM; MIC [16]: ≥ 512 µM; MIC [17]: ≥ 512 µM; MIC [18]: ≥ 512 µM; MIC [19]: ≥ 512 µM
CC[C@H](C)[C@H](NC(=O)CNC(=O)[C@@H](NC(=O)[C@H](C)NC(=O)[C@@H](NC(=O)[C@H](Cc1cnc[nH]1)NC(=O)[C@@H]1CCCN1C(=O)[C@@H](NC(=O)[C@H](CC(C)C)NC(=O)[C@H](CO)NC(=O)[C@H](CC(C)C)NC(=O)[C@@H](N)Cc1ccccc1)[C@@H](C)CC)[C@@H](C)CC)[C@@H](C)O)C(=O)N[C@@H](C)C(=O)N[C@@H](C)C(=O)N[C@@H](CC(C)C)C(=O)N[C@@H](C)C(=O)N[C@@H](CCCCN)C(=O)N[C@@H](Cc1cnc[nH]1)C(=O)N[C@@H](CC(C)C)C(N)=O [FLSLIPHIATGIAALAKHL]	–	–	–	–	–	–	–	–	–	–	–	50 µM (≈ 99.3 µg/mL)	–	–	–	–	–	–	–	–	MIC [12]: 12.5 µM (≈ 24.8 µg/mL); MIC [13]: ≥ 100 µM

Continued, in another order:

MIC [1]	MIC (Enterococcus faecalis VR)	MIC [2]	MIC (Staphylococcus aureus MR)	MIC (Enterococcus faecalis)	MIC (Enterococcus faecium)	MIC [3]	MIC [4]	MIC [5]	MIC [6]	MIC (Enterococcus faecium VR)	MIC [11]	MIC (Streptococcus pneumoniae)	MIC [20]	MIC (Enterobacter cloacae)	MIC (Staphylococcus aureus)	MIC [21]	MIC (Klebsiella pneumoniae)	MIC [22]	MIC (Citrobacter sp.)	SMILES	further results
30 µM	30 µM	30 µM	30 µM	30 µM	30 µM	30 µM	30 µM	30 µM	30 µM	30 µM	–	–	–	–	–	–	–	–	–	CC(C)C[C@H](NC(=O)[C@H](CS)NC(=O)[C@H](Cc1cnc[nH]1)NC(=O)[C@H](C)NC(=O)[C@H](C)N)C(=O)N[C@@H](C)C(=O)N[C@@H](CCCCN)C(=O)N[C@@H](CCCN=C(N)N)C(=O)N[C@@H](CCCCN)C(=O)N[C@@H](CCCCN)C(N)=O [AAHCLAKRKK]	–
7.5 µM	30 µM	15 µM	15 µM	30 µM	30 µM	15 µM	15 µM	15 µM	15 µM	30 µM	–	–	–	–	–	–	–	–	–	CC(C)C[C@H](NC(=O)[C@H](Cc1ccccc1)NC(=O)[C@H](CC(C)C)NC(=O)[C@H](CS)NC(=O)[C@H](Cc1cnc[nH]1)NC(=O)[C@@H](NC(=O)[C@H](C)N)[C@@H](C)O)C(=O)N[C@@H](CCCCN)C(=O)N[C@@H](CCCCN)C(=O)N[C@@H](CCCN=C(N)N)C(N)=O [ATHCLFLKKR]	–
–	–	–	–	–	–	–	–	–	–	–	> 114 µM	≥ 114 µM	> 114 µM	≥ 114 µM	> 114 µM	≥ 114 µM	> 114 µM	≥ 114 µM	≥ 114 µM	CC[C@H](C)[C@H](NC(=O)[C@H](CCSC)NC(=O)[C@H](C)NC(=O)[C@@H]1CCCN1C(=O)[C@@H]1CCCN1C(=O)[C@H](CCCN=C(N)N)NC(=O)[C@H](CCCCN)NC(=O)[C@@H](NC(=O)[C@H](CC(C)C)NC(=O)CNC(=O)CNC(=O)[C@H](CC(C)C)NC(=O)[C@@H](N)Cc1ccccc1)[C@@H](C)CC)C(=O)N[C@H]1CSSC[C@@H](C(=O)O)NC(=O)[C@H](CCCCN)NC(=O)[C@H](CCCCN)NC(=O)[C@H](CCCN=C(N)N)NC(=O)[C@H](C(C)C)NC(=O)[C@H](C)NC1=O [FLGGLIKRPPAMICAVRKKC]	–
–	–	–	–	–	–	–	–	–	–	–	3.91 µM (≈ 7.81 µg/mL)	3.91 µM (≈ 7.81 µg/mL)	3.91 µM (≈ 7.81 µg/mL)	≥ 125 µM	3.91 µM (≈ 7.81 µg/mL)	15.6 µM (≈ 31.2 µg/mL)	> 125 µM	31.3 µM (≈ 62.5 µg/mL)	≥ 125 µM	CC[C@H](C)[C@H](NC(=O)[C@H](CC(C)C)NC(=O)CNC(=O)CNC(=O)[C@H](CC(C)C)NC(=O)[C@@H](N)Cc1ccccc1)C(=O)N[C@@H](CCCCN)C(=O)N[C@@H](Cc1c[nH]c2ccccc12)C(=O)N1CCC[C@H]1C(=O)N[C@@H](Cc1c[nH]c2ccccc12)C(=O)N[C@@H](Cc1c[nH]c2ccccc12)C(=O)N1CCC[C@H]1C(=O)N[C@@H](Cc1c[nH]c2ccccc12)C(=O)N[C@@H](CCCN=C(N)N)C(=O)N[C@@H](CCCN=C(N)N)C(N)=O [FLGGLIKWPWWPWRR]	–
–	–	–	–	–	–	–	–	–	–	–	16.1 µM (≈ 31.2 µg/mL)	16.1 µM (≈ 31.2 µg/mL)	16.1 µM (≈ 31.2 µg/mL)	≥ 129 µM	16.1 µM (≈ 31.2 µg/mL)	16.1 µM (≈ 31.2 µg/mL)	> 129 µM	≥ 129 µM	≥ 129 µM	CC(C)C[C@H](NC(=O)[C@@H](N)CC(C)C)C(=O)N1CCC[C@H]1C(=O)N[C@@H](Cc1c[nH]c2ccccc12)C(=O)N[C@@H](CCCCN)C(=O)N[C@@H](Cc1c[nH]c2ccccc12)C(=O)N1CCC[C@H]1C(=O)N[C@@H](Cc1c[nH]c2ccccc12)C(=O)N[C@@H](Cc1c[nH]c2ccccc12)C(=O)N[C@@H](CCCCN)C(=O)N[C@@H](Cc1c[nH]c2ccccc12)C(=O)N[C@@H](CCCN=C(N)N)C(=O)N[C@@H](CCCN=C(N)N)C(N)=O [LLPWKWPWWKWRR]	–
